Test results as given in patent US4753953A, “Pyridonecarboxylic acid derivatives and antibacterial pharmaceutical compositions thereof” (priority 1985, dated 1988).
Read-outs that look alike come from different tables or passages of the source.

Experiments:
[1] = tested on: K. pneumoniae 1-220S; experiment: MIC, in vitro antibacterial activity (standard strains); assay type: cell-based, Klebsiella pneumoniae; conditions: Klebsiella pneumoniae, 1220S; 10^6 cells/ml; Gram -; read-out: MIC
[2] = tested on: Acinetobacter anitratus IID 876; experiment: as above; assay type: cell-based; conditions: Acinetobacter calcoaceticus, IID876; 10^6 cells/ml; Gram -; read-out: MIC
[3] = tested on: Proteus vulgaris IFO 3167; experiment: as above; assay type: cell-based; conditions: Proteus vulgaris, IFO3167
[4] = tested on: Bacteroides fragilis GM 7000; experiment: as above; assay type: cell-based; conditions: Bacteroides fragilis, GM7000; 10^6 cells/ml; Gram -; read-out: MIC
[5] = tested on: Propionibacterium acens 11828; experiment: as above; assay type: cell-based; conditions: Propionibacterium, 11828; 10^6 cells/ml; Gram +; read-out: MIC
[6] = tested on: Shigella sonnei IID 969; experiment: as above; assay type: cell-based; conditions: Shigella sonnei, IID969; 10^6 cells/ml; Gram -; read-out: MIC
Description: Minimal inhibitory concentrations (MICs) were determined in accordance with the method recommended by Japan Society of Chemotherapy.

[7] = tested on: Salmonella enteritidis IID 604; experiment: as above; assay type: cell-based; conditions: Salmonella enterica; 10^6 cells/ml; Gram -; read-out: MIC
[8] = tested on: Staphylococcus aureus 209 P; experiment: as above; assay type: cell-based; conditions: Staphylococcus aureus, 209P; 10^6 cells/ml; Gram +; read-out: MIC
[9] = tested on: F. necrophorum S-45; experiment: as above; assay type: cell-based; conditions: Fusobacterium necrophorum, S45; 10^6 cells/ml; Gram -; read-out: MIC
[10] = tested on: E. coli ML 4707; experiment: as above; assay type: cell-based, Escherichia coli; conditions: Escherichia coli, ML4707, 10^6 cells/ml; Gram -; Table 1; read-out: MIC
[11] = tested on: Pseudomonas aeruginosa V-1; experiment: as above; assay type: cell-based; conditions: Pseudomonas aeruginosa, V1; 10^6 cells/ml; Gram -; read-out: MIC
[12] = tested on: Veillonella parvula KYA 10790; experiment: as above; assay type: cell-based; conditions: Veillonella parvula, KYA10790; 10^6 cells/ml; Gram -; read-out: MIC
[13] = tested on: S. epidermidis IID 866; experiment: as above; assay type: cell-based; conditions: Staphylococcus epidermidis, IID866; 10^6 cells/ml; Gram +; read-out: MIC
[14] = tested on: B. distasonis 8503; experiment: as above; assay type: cell-based; conditions: Parabacteroides distasonis, 8503; 10^6 cells/ml; Gram -; read-out: MIC
[15] = tested on: C. perfringens KYA 13123; experiment: microbe, parasite or virus in culture; assay type: cell-based; conditions: Clostridium perfringens, KYA13123
[16] = tested on: Fusobacterium mortiferum 4249; experiment: MIC, in vitro antibacterial activity (standard strains); assay type: cell-based; conditions: Fusobacterium mortiferum, 4249; 10^6 cells/ml; Gram -; read-out: MIC
[17] = tested on: Peptostreptococcus anaerobius KYA 27337; experiment: as above; assay type: cell-based; conditions: Peptostreptococcus anaerobius, KYA27337; 10^6 cells/ml; Gram +; read-out: MIC
[18] = tested on: Yersinia enterocolitica IID 981; experiment: as above; assay type: cell-based; conditions: Yersinia enterocolitica, IID981; 10^6 cells/ml; Gram -; read-out: MIC
[19] = tested on: Citrobacter freundii IID 976; experiment: as above; assay type: cell-based; conditions: Citrobacter freundii, IID976
[20] = tested on: B. fragilis 0558; experiment: as above; assay type: cell-based, Bacteroides fragilis; conditions: Bacteroides fragilis, 0558; 10^6 cells/ml; Gram -; read-out: MIC
[21] = tested on: F. varium KYA 8501; experiment: as above; assay type: cell-based; conditions: Fusobacterium varium, KYA8501; 10^6 cells/ml; Gram -; read-out: MIC
[22] = tested on: Alcaligenes faecalis 0114002; experiment: as above; assay type: cell-based; conditions: Alcaligenes faecalis, 0114002; 10^6 cells/ml; Gram -; read-out: MIC
[23] = tested on: C. ramosum; experiment: as above; assay type: cell-based; conditions: Thomasclavelia ramosa; 10^6 cells/ml; Gram +; read-out: MIC
[24] = tested on: S. aureus Smith; experiment: as above; assay type: cell-based, Staphylococcus aureus; conditions: Staphylococcus aureus; 10^6 cells/ml; Gram +; read-out: MIC
[25] = tested on: Clostridium difficile I-E; experiment: as above; assay type: cell-based; conditions: Clostridioides difficile; 10^6 cells/ml; Gram +
[26] = tested on: P. cepacia GIFU 518; experiment: as above; assay type: cell-based; conditions: Burkholderia cepacia, GIFU518
[27] = tested on: B. fragilis 25285; experiment: as above; assay type: cell-based, Bacteroides fragilis; conditions: Bacteroides fragilis, 25285; 10^6 cells/ml; Gram -; read-out: MIC
[28] = tested on: E. coli ATCC 10536; experiment: as above; assay type: cell-based, Escherichia coli; conditions: Escherichia coli, ATCC10536; 10^6 cells/ml; Gram -; read-out: MIC
[29] = tested on: Bacillus subtilis PCI 219; experiment: as above; assay type: cell-based; conditions: Bacillus subtilis, PCI219; 10^6 cells/ml; Gram +; read-out: MIC
[30] = tested on: E. faecalis IID 682; experiment: as above; assay type: cell-based; conditions: Enterococcus faecalis, IID682; 10^6 cells/ml; Gram +; read-out: MIC
[31] = tested on: S. pneumoniae IID 552; experiment: as above; assay type: cell-based; conditions: Streptococcus pneumoniae, IID552; 10^6 cells/ml; Gram +; read-out: MIC
[32] = tested on: Streptococcus pyogenes (S-8); experiment: as above; assay type: cell-based; conditions: Streptococcus pyogenes; 10^6 cells/ml; Gram +; read-out: MIC
[33] = 10^6 cells/ml, Gram -, read-out: MIC

Measured: MIC

C[C@@H]1CN(c2c(F)cc3c(=O)c(C(=O)O)cn(C4CC4)c3c2Cl)C[C@H]1N (relative stereo) [Example 17, 7-(trans-3-Amino-4-methyl-1-pyrrolidinyl)-8-chloro-1-cyclopropyl-6-fluoro-1,4-dihydro-4-oxo-3-quinolinecarboxylic acid]
0.78 mg/L: [5] | [21]
0.05 mg/L: [4] | [9] | [12] | [13] | [15] | [20] | [22] | [27]
0.0125 mg/L: [1] | [3]; [33] | [19]; [33] | [29]
0.2 mg/L: [26]
0.1 mg/L: [11] | [14] | [16] | [17]
0.025 mg/L: [2] | [7] | [8] | [18] | [24]
0.0063 mg/L: [6] | [10] | [28]
0.39 mg/L: [23] | [25]

C[C@@H]1CN(c2c(F)cc3c(=O)c(C(=O)O)cn(C4CC4)c3c2F)C[C@H]1N (relative stereo) [Example 18, 7-(trans-3-Amino-4-methyl-1-pyrrolidinyl)-1-cyclopropyl-6,8-difluoro-1,4-dihydro-4-oxo-3-quinolinecarboxylic acid]
0.05 mg/L: [8] | [13] | [18] | [31] | [24] | [28] | [32]
0.0063 mg/L: [10]
0.0125 mg/L: [3] | [6] | [19]
0.39 mg/L: [14]
0.78 mg/L: [23]
0.2 mg/L: [4] | [9] | [16] | [17] | [20] | [27]
1.56 mg/L: [5] | [21] | [25]
0.1 mg/L: [30] | [11] | [12] | [15] | [22] | [26]
0.025 mg/L: [1] | [2] | [7] | [29]
